Data reported in patent publication US5278308A, “Iodine derivatives of tetrabenazine” (The Trustees of The University of Pennsylvania, priority 1992, dated 1994).
Where two headings read alike, the source gives them in different places.

How the values were obtained:
[1] = Protein binding by Filter (50% rat plasma, Amicon micropartition system); assay type: in vitro ADME; conditions: rat, 50% plasma, 30 min, 37° C.
Description: One mL of rat plasma (50%) was mixed with [^123 I]I-TBZ in a test tube. After 30 min incubation at 37° C., 50 uL ×3 of liquid was removed as initial dose standard (I.D.); the rest was passed through an Amicon micropartition system (Amicon division, W. R. Grace, Danvers, Mass.) by centrifuging for 20 minutes (2,000 rpm) at 0° C. Four samples (50 uL each) were removed from the filtered solution and counted. The protein binding (% bound) was calculated by using the unit counts in filtrate divided by unit counts in ID.

[2] = Biodistribution in rats (iv injection); assay type: in vivo; conditions: rat, iv
Description: While under ether anesthesia, each rat was injected in the femoral vein with 0.2 mL saline solution containing [^123 I]I-TBZ (1-5uCi) either racemic mixture, peak-A or peak-B. The rats were sacrificed at various time points postinjection by cardiac excision. The tissues were weighed and the radioactivity was measured with a Canberra gamma counter (Model 5000). The percent dose per organ was calculated by a comparison of the tissue counts to suitably diluted aliquots of the injected material. Total activities of blood and muscle were calculated assuming that they were 7% and 40% of total body weight, respectively Results are presented in Tables 3, 4A and 4B.

[3] = Regional brain distribution in rats (dissection, iv injection); assay type: in vivo; conditions: for Str./Cb (% dose/gram ratio) / Regional brain uptake, Rem / Regional brain uptake, cerebellum / Regional brain uptake, cortex / Regional brain uptake, hippocampus / Regional brain uptake, striatum / tissue uptake at 5 min / tissue uptake at 20 min: rat
Description: Regional brain distribution of [^123 I]I-TBZ (with either a racemic mixture, peak A or B) in rats was obtained after an iv injection. By dissecting, weighing and counting samples from different brain regions (cortex, striatum, hippocampus and cerebellum), % dose/gram of the samples was calculated by comparing the sample counts with the counts of the diluted initial dose. The ratio of uptake in each region was obtained by dividing % dose/gram of each region with that of the cerebellum. The effect of tetrahydrobenazine on the uptake of peak A or peak B was investigated by pretreating the rats with the TBZ 3 mg/rat at 3 min before iv injection of [^123 I]I-TBZ. At 20 min. post injection the rats were dissected and the regional brain dissection was carried out as above.

[4] = Protein binding by TCA (10% rat plasma, 30 min, 37° C.); assay type: in vitro ADME; conditions: rat, 10% plasma, TCA precipitation
Description: One ml of 10% rat plasma was mixed with [^123 I]I-TBZ in a test tube and the mixture was incubated for 30 minutes at 37° C. To the mixture 0.4 mL of 10% trichloroacetic acid (TCA) was added. The test tube was centrifuged for 10 min. (4,000 rpm), and the top aqueous layer was removed to another test tube for counting The precipitate was washed with water (0.5 mL×2). The combined water and top aqueous layer was counted. The residual precipitate was also counted. The protein binding was obtained by dividing counts in precipitate with counts in aqueous layers.

[5] = up to 300 mg daily, several trials; cited from earlier work
[6] = system: monoamine uptake-storage mechanism of amine granules in the synapse; conditions: in vivo; cited from earlier work
[7] = 20 min, pretreated with TBZ 3 min before, n = 2
[8] = 120 min, listed as I-TBZ peak A

COc1cc2c(cc1OC)C1CC(O)(C=C[123I])C(CC(C)C)CN1CC2 (single isomer, unassigned) [Peak A]
fraction unbound at 0.5 h [1]: 0.182 | Brain uptake ([2]; 2 min): 1.2 % Dose/organ | Blood uptake (blood assumed 7% of body weight) ([2]; 5 min): 2.15 ± 0.11 % Dose/organ | Br/Bl (% dose/gram ratio) ([2]; 5 min): 5.51 ± 0.37 | Brain uptake ([2]; 5 min): 1.12 ± 0.15 % Dose/organ | Heart uptake ([2]; 5 min): 0.91 ± 0.17 % Dose/organ | Kidney uptake ([2]; 5 min): 4.43 ± 0.56 % Dose/organ | Liver uptake ([2]; 5 min): 21.23 ± 2.66 % Dose/organ | Lung uptake ([2]; 5 min): 2.85 ± 0.52 % Dose/organ | Muscle uptake (muscle assumed 40% of body weight) ([2]; 5 min): 11.96 ± 1.56 % Dose/organ | Skin uptake ([2]; 5 min): 8.72 ± 1.52 % Dose/organ | Spleen uptake ([2]; 5 min): 0.62 ± 0.13 % Dose/organ | Thyroid uptake ([2]; 5 min): 0.08 ± 0.01 % Dose/organ | Blood uptake (blood assumed 7% of body weight) ([2]; 20 min): 1.42 ± 0.56 % Dose/organ | Br/Bl (% dose/gram ratio) ([2]; 20 min): 4.59 ± 1.10 | Brain uptake ([2]; 20 min): 0.58 ± 0.01 % Dose/organ | Heart uptake ([2]; 20 min): 0.49 ± 0.04 % Dose/organ | Kidney uptake ([2]; 20 min): 2.21 ± 0.11 % Dose/organ | Liver uptake ([2]; 20 min): 16.16 ± 4.71 % Dose/organ | Lung uptake ([2]; 20 min): 1.65 ± 0.11 % Dose/organ | Muscle uptake (muscle assumed 40% of body weight) ([2]; 20 min): 26.79 ± 7.14 % Dose/organ | Skin uptake ([2]; 20 min): 9.00 ± 5.10 % Dose/organ | Spleen uptake ([2]; 20 min): 0.44 ± 0.06 % Dose/organ | Thyroid uptake ([2]; 20 min): 0.05 ± 0.01 % Dose/organ | Blood uptake (blood assumed 7% of body weight) [2, 7]: 2.05 ± 0.21 % Dose/organ | Br/Bl (% dose/gram ratio) [2, 7]: 4.10 ± 0.27 | Brain uptake [2, 7]: 0.85 ± 0.12 % Dose/organ | Heart uptake [2, 7]: 0.61 ± 0.11 % Dose/organ | Kidney uptake [2, 7]: 2.03 ± 0.24 % Dose/organ | Liver uptake [2, 7]: 13.34 ± 4.06 % Dose/organ | Lung uptake [2, 7]: 1.74 ± 0.002 % Dose/organ | Muscle uptake (muscle assumed 40% of body weight) [2, 7]: 29.70 ± 2.56 % Dose/organ | Skin uptake [2, 7]: 7.08 ± 2.33 % Dose/organ | Spleen uptake [2, 7]: 0.06 ± 0.07 % Dose/organ | Thyroid uptake [2, 7]: 0.08 ± 0.01 % Dose/organ | Blood uptake (blood assumed 7% of body weight) ([2]; 60 min): 1.14 ± 0.16 % Dose/organ | Br/Bl (% dose/gram ratio) ([2]; 60 min): 3.05 ± 0.12 | Brain uptake ([2]; 60 min): 0.33 ± 0.07 % Dose/organ | Heart uptake ([2]; 60 min): 0.38 ± 0.07 % Dose/organ | Kidney uptake ([2]; 60 min): 1.52 ± 0.28 % Dose/organ | Liver uptake ([2]; 60 min): 10.12 ± 1.26 % Dose/organ | Lung uptake ([2]; 60 min): 1.17 ± 0.06 % Dose/organ | Muscle uptake (muscle assumed 40% of body weight) ([2]; 60 min): 21.88 ± 2.74 % Dose/organ | Skin uptake ([2]; 60 min): 14.76 ± 4.35 % Dose/organ | Spleen uptake ([2]; 60 min): 0.36 ± 0.04 % Dose/organ | Thyroid uptake ([2]; 60 min): 0.07 ± 0.01 % Dose/organ | Blood uptake (blood assumed 7% of body weight) ([2]; 120 min): 0.95 ± 0.03 % Dose/organ | Br/Bl (% dose/gram ratio) ([2]; 120 min): 1.96 ± 0.43 | Brain uptake ([2]; 120 min): 0.18 ± 0.04 % Dose/organ | Heart uptake ([2]; 120 min): 0.26 ± 0.03 % Dose/organ | Kidney uptake ([2]; 120 min): 1.05 ± 0.1q | Liver uptake ([2]; 120 min): 7.54 ± 0.77 % Dose/organ | Lung uptake ([2]; 120 min): 0.81 ± 0.14 % Dose/organ | Muscle uptake (muscle assumed 40% of body weight) ([2]; 120 min): 18.56 ± 2.34 % Dose/organ | Skin uptake ([2]; 120 min): 11.22 ± 3.92 % Dose/organ | Spleen uptake ([2]; 120 min): 0.23 ± 0.04 % Dose/organ | Thyroid uptake ([2]; 120 min): 0.07 ± 0.05 % Dose/organ | Regional distribution / selectivity in rat brain (in words) [3]: significantly increased selective regional distribution | Str./Cb (% dose/gram ratio) ([3]; 5 min, listed as I-TBZ peak A): 1.09 | Regional brain uptake, Rem ([3]; 20 min, listed as I-TBZ peak A): 0.395 ± 0.019 % Dose/g | Regional brain uptake, cerebellum ([3]; 20 min, listed as I-TBZ peak A): 0.362 ± 0.017 % Dose/g | Regional brain uptake, cortex ([3]; 20 min, listed as I-TBZ peak A): 0.420 ± 0.031 % Dose/g | Regional brain uptake, hippocampus ([3]; 20 min, listed as I-TBZ peak A): 0.414 ± 0.032 % Dose/g | Regional brain uptake, striatum ([3]; 20 min, listed as I-TBZ peak A): 0.479 ± 0.014 % Dose/g | Str./Cb (% dose/gram ratio) ([3]; 20 min, listed as I-TBZ peak A): 1.32 | Str./Cb (% dose/gram ratio) [3, 7]: 1.12 | Regional brain uptake, Rem ([3]; 60 min, listed as I-TBZ peak A): 0.229 ± 0.036 % Dose/g | Regional brain uptake, cerebellum ([3]; 60 min, listed as I-TBZ peak A): 0.225 ± 0.029 % Dose/g | Regional brain uptake, cortex ([3]; 60 min, listed as I-TBZ peak A): 0.234 ± 0.035 % Dose/g | Regional brain uptake, hippocampus ([3]; 60 min, listed as I-TBZ peak A): 0.230 ± 0.048 % Dose/g | Regional brain uptake, striatum ([3]; 60 min, listed as I-TBZ peak A): 0.271 ± 0.046 % Dose/g | Str./Cb (% dose/gram ratio) ([3]; 60 min, listed as I-TBZ peak A): 1.21 | Regional brain uptake, Rem [3, 8]: 0.118 ± 0.022 % Dose/g | Regional brain uptake, cerebellum [3, 8]: 0.116 ± 0.026 % Dose/g | Regional brain uptake, cortex [3, 8]: 0.129 ± 0.019 % Dose/g | Regional brain uptake, hippocampus [3, 8]: 0.113 ± 0.041 % Dose/g | Regional brain uptake, striatum [3, 8]: 0.138 ± 0.022 % Dose/g | Str./Cb (% dose/gram ratio) [3, 8]: 1.19 | tissue uptake at 5 min ([3]; brain remainder, 5 min, read-out: Regional brain uptake, Rem): 0.74 ± 0.063 %ID/g | tissue uptake at 20 min ([3]; brain remainder, 20 min, pretreated with TBZ 3 min before, n = 2, read-out: Regional brain uptake, Rem): 0.545 ± 0.047 %ID/g | tissue uptake at 5 min ([3]; cerebellum, 5 min, read-out: Regional brain uptake, cerebellum): 0.708 ± 0.044 %ID/g | tissue uptake at 20 min ([3]; cerebellum, 20 min, pretreated with TBZ 3 min before, n = 2, read-out: Regional brain uptake, cerebellum): 0.534 ± 0.032 %ID/g | tissue uptake at 5 min ([3]; cortex, 5 min, read-out: Regional brain uptake, cortex): 0.792 ± 0.096 %ID/g | tissue uptake at 20 min ([3]; cortex, 20 min, pretreated with TBZ 3 min before, n = 2, read-out: Regional brain uptake, cortex): 0.585 ± 0.067 %ID/g | tissue uptake at 5 min ([3]; hippocampus, 5 min, read-out: Regional brain uptake, hippocampus): 0.725 ± 0.066 %ID/g | tissue uptake at 20 min ([3]; hippocampus, 20 min, pretreated with TBZ 3 min before, n = 2, read-out: Regional brain uptake, hippocampus): 0.581 ± 0.075 %ID/g | tissue uptake at 5 min ([3]; striatum, 5 min, read-out: Regional brain uptake, striatum): 0.77 ± 0.019 %ID/g | tissue uptake at 20 min ([3]; striatum, 20 min, pretreated with TBZ 3 min before, n = 2, read-out: Regional brain uptake, striatum): 0.596 %ID/g | fraction unbound at 0.5 h [4]: 0.619

COc1cc2c(cc1OC)C1CC(=O)C(CC(C)C)CN1CC2 (centres unmarked) [TBZ, 3-(2-methylpropyl)-9,10-dimethoxy-1,3,4,6,7,11b-hexahydro-2H-benzo[a]quinolizin-2-one]
Effect on tardive dyskinesia in patients (in words) [5]: improved tardive dyskinesia | Duration of depletion of catecholamines and serotonin in the brain (in words) [6]: shorter duration | Irreversible damage to storage mechanism / neurons (in words) [6]: do not cause irreversible damage to neurons
